These results are taken from patent US20220073536A1 (Rigel Pharmaceuticals, Inc., priority 2003, published 2022).

In experiment [1] the test system is cultured human mast cells (CHMC). Put plainly: CHMC low cell density IgE activation: tryptase assay. In kind it is cell-based. Particulars: IgE activation. The method in brief:
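Tryptase release was read from supernatant with a fluorogenic substrate (30 min, room temperature) after anti-IgE challenge of cultured human mast cells (1000–1500 cells/well, low density) for 30 minutes at 37° C.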

For experiment [2] the test system is unchanged. Kind of experiment: CHMC low cell density ionomycin activation: tryptase assay. It counts as cell-based. The following applies: read-out: LD Tryptase, CHMC, Iono, 3 pt.
Setting [3] is: Homo sapiens, Mast cell, low cell density CHMC, tryptase release, 3 pt, read-out: LD Tryptase, CHMC, IgE, 3 pt.
[4] abbreviates: Homo sapiens, Mast cell, low cell density CHMC, tryptase release, 8 pt, read-out: LD Tryptase, CHMC, IgE, 8 pt.
[5] abbreviates: Homo sapiens, Mast cell, low cell density CHMC, tryptase release, 3 pt.
[6] abbreviates: low cell density CHMC, tryptase release, 3 point, read-out: LD Tryptase, CHMC, IgE, 3 pt.
Setting [7] is: low cell density CHMC, tryptase release, 3 point.
Where [8] appears, read: low cell density CHMC, tryptase release, 3 pt, read-out: LD Tryptase, CHMC, IgE, 3 pt.
Where [9] appears, read: low cell density CHMC, tryptase release, 8 pt, read-out: LD Tryptase, CHMC, IgE, 8 pt.
Setting [10] is: low cell density CHMC, tryptase release, 3 pt.
Where [11] appears, read: Homo sapiens, Mast cell, low cell density CHMC, tryptase readout, 3 pt, read-out: LD Tryptase, CHMC, IgE, 3 pt.
[12] abbreviates: Homo sapiens, Mast cell, low cell density CHMC, tryptase readout, 8 pt, read-out: LD Tryptase, CHMC, IgE, 8 pt.
The mark [13] stands for this setting: Homo sapiens, Mast cell, low cell density CHMC, tryptase readout, 3 pt.
Setting [14] is: low cell density CHMC, tryptase release, 8 point, read-out: LD Tryptase, CHMC, IgE, 8 pt.
Setting [15] is: Homo sapiens, Mast cell, low cell density CHMC, tryptase, 3 pt, read-out: LD Tryptase, CHMC, IgE, 3 pt.
Setting [16] is: Homo sapiens, Mast cell, low cell density CHMC, tryptase, 3 pt.

Counter-ions that a name gives are not always drawn.

In the case of `Cc1nc2ccc(Nc3ncc(F)c(Nc4ccc5c(c4)NC(=O)[C@H](C)O5)n3)cc2[nH]1` [Compound 811, (S)-5-Fluoro-N2-(2-methyl-3H-benzimidazol-5-yl)-N4-(2-methyl-3-oxo-2H,4H-benz[1,4]oxazin-6-yl)-2,4-pyrimidinediamine], the results for the IC50 in experiment [1] (setting [3]), in experiment [1] (setting [4]) and in experiment [2] (setting [5]) were below 10 µM, below 10 µM and above 10 µM, respectively.
`Cn1ncc2ccc(Nc3ncc(F)c(Nc4ccc5c(c4)NC(=O)C(C)(C)O5)n3)cc21` [Compound 769, N4-(2,2-Dimethyl-3-oxo-4H-benz[1,4]oxazin-6-yl)-5-fluoro-N2-(1-methylindazol-6-yl)-2,4-pyrimidinediamine Benzenesulfonic Acid Salt]: the values for the IC50 in experiment [1] (setting [3]), in experiment [1] (setting [4]) and in experiment [2] (setting [5]) were below 10 µM, below 10 µM and above 10 µM, respectively.
Turning to `CNC(=O)Cn1ccc2ccc(Nc3ncc(F)c(Nc4ccc(Cl)c(OC)c4)n3)cc21` [Compound 663, N4-(4-Chloro-3-methoxyphenyl)-5-fluoro-N2-[1-(N-methylamino)carbonylmethyleneindol-6-yl]-2,4-pyrimidinediamine], the results for the IC50 in experiment [1] (setting [6]) and in experiment [2] (setting [7]) were below 10 µM and above 10 µM, respectively.
In the case of `COc1cc(N(C)c2nc(Nc3cc(C)cc(C)c3)ncc2F)ccc1Cl` [Compound 588], the IC50 in experiment [1] (Homo sapiens, Mast cell, low cell density CHMC, tryptase release, 3 point, read-out: LD Tryptase, CHMC, IgE, 3 pt) is below 10 µM; in experiment [2] (Homo sapiens, Mast cell, low cell density CHMC, tryptase release, 3 point), above 10 µM.
As to `CC1(C)CNc2nc(Nc3nc(Cl)ncc3F)ccc2O1` [Compound 1051, 2-Chloro-N4-(3,4-dihydro-2,2-dimethyl-4H-5-pyrid[1,4]oxazin-6-yl)-5-fluoro-4-pyrimidineamine], the IC50 is above 10 µM in experiment [1] (low cell density CHMC, tryptase readout, 3 pt, read-out: LD Tryptase, CHMC, IgE, 3 pt) and above 10 µM in experiment [2] (low cell density CHMC, tryptase readout, 3 pt).
On to `COCCCn1ncc2cc(Nc3ncc(F)c(Nc4ccc5c(c4)NC(=O)[C@H](C)O5)n3)ccc21` [Compound 795, (S)-5-Fluoro-N2-[1-(3-methoxypropyl)indazol-5-yl]-N4-(2-methyl-3-oxo-2H,4H-benz[1,4]oxazin-6-yl)-2,4-pyrimidinediamine], for which the IC50 in experiment [1] (setting [3]) was below 10 µM; in experiment [1] (setting [4]) it was below 10 µM; in experiment [2] (setting [5]), above 10 µM.
Turning to `C[C@@H]1Oc2ccc(Nc3nc(Nc4cccc(-c5cnco5)c4)ncc3F)cc2NC1=O` [Compound 247], the IC50 in experiment [1] (setting [3]) was below 10 µM; in experiment [1] (setting [4]), below 10 µM; in experiment [2] (setting [5]) it was above 10 µM.
As for `CNC(=O)c1ccc(Nc2ncc(F)c(Nc3ccc4c(c3)OCCO4)n2)cc1Cl` [Compound 463], the IC50 in experiment [1] (Homo sapiens, Mast cell, low cell density, 3 pt, read-out: LD Tryptase, CHMC, IgE, 3 pt) is below 10 µM; in experiment [1] (Homo sapiens, Mast cell, low cell density, 8 pt, read-out: LD Tryptase, CHMC, IgE, 8 pt), below 10 µM; in experiment [2] (Homo sapiens, Mast cell, low cell density, 3 pt), above 10 µM.
Take `O=C1Nc2ccc(Nc3nc(Nc4cccc(-c5ncco5)c4)ncc3F)cc2OC1CCO` (centres unmarked) [Compound 248]: the results for the IC50 in experiment [1] (setting [3]), in experiment [1] (setting [4]) and in experiment [2] (setting [5]) were below 10 µM, below 10 µM and above 10 µM, respectively.
With `CNC(=O)COc1ccc(Nc2nc(Nc3ccc(Cl)c(C(=O)NC)c3)ncc2F)cc1Cl` [Compound 608, N4-[3-Chloro-4-(N-methylamino)carbonylmethyleneoxyphenyl]-N2-[4-chloro-3-(N-methylamino)carbonylphenyl]-5-fluoro-2,4-pyrimidinediamine], the IC50 was below 10 µM in experiment [1] (setting [6]) and above 10 µM in experiment [2] (setting [7]).
As for `CC1(C)COc2ccc(Nc3nc(Nc4cccc(-c5ncco5)c4)ncc3F)cc2N1` [Compound 218, N4-(3,4-Dihydro-3,3-dimethyl-2H,4H-benz[1,4]oxazin-6-yl)-5-fluoro-N2-[3-(oxazol-2-yl)phenyl]-2,4-pyrimidinediamine], the IC50 was below 10 µM in experiment [1] (setting [8]), below 10 µM in experiment [1] (setting [9]) and above 10 µM in experiment [2] (setting [10]).
Turning to `COc1cc(Nc2ncc(F)c(NC3CCC3)n2)cc(OC)c1` [Compound 1088, N4-Cyclobutyl-N2-(3,5-dimethoxyphenyl)-5-fluoro-2,4-pyrimidinediamine], the IC50 was below 10 µM in experiment [1] (setting [11]), below 10 µM in experiment [1] (setting [12]) and above 10 µM in experiment [2] (setting [13]).
For `Fc1cnc(Nc2cccc(N3CCOCC3)c2)nc1Nc1cccc(NC2=NCCN2)c1` [Compound 1097, 5-Fluoro-N4-[3-(N-2-imidazolin-2-yl)aminophenyl]-N2-(3-morpholinophenyl)-2,4-pyrimidinediamine], the IC50 in experiment [1] (setting [11]) and in experiment [2] (setting [13]) was above 10 µM throughout.
As for `COC(=O)COc1ccc(Nc2nc(Nc3cc(C)c(Cl)c(C)c3)ncc2F)cc1Cl` [Compound 617, N2-(4-Chloro-3,5-dimethylphenyl)-N4-[3-chloro-4-(methoxycarbonyl)methyleneoxyphenyl]-5-fluoro-2,4-pyrimidinediamine], the IC50 in experiment [1] (setting [6]), in experiment [1] (setting [14]) and in experiment [2] (setting [7]) was below 10 µM throughout.
Regarding `O=C1Nc2ccc(Nc3nc(Nc4ccc(-c5cnco5)cc4)ncc3F)cc2OC1CCO` (centres unmarked) [Compound 249], the IC50 was below 10 µM in experiment [1] (setting [3]), above 10 µM in experiment [1] (setting [4]) and above 10 µM in experiment [2] (setting [5]).
As to `COc1cc(Nc2nc(Nc3ccc4c(cnn4CCCOC(C)=O)c3)ncc2F)ccc1F` [Compound 789, N2-[1-(3-Acetyloxypropyl)indazol-5-yl]-5-fluoro-N4-(4-fluoro-3-methoxyphenyl)-2,4-pyrimidinediamine], the IC50 in experiment [1] (setting [3]) is below 10 µM; in experiment [1] (setting [4]), below 10 µM; in experiment [2] (setting [5]), above 10 µM.
On to `CN1C(=O)C(C)(C)Oc2ccc(N(C)c3nc(Nc4ccc(-c5cnco5)cc4)ncc3F)cc21` [Compound 1026], for which the IC50 in experiment [1] (setting [11]) was below 10 µM; in experiment [2] (setting [13]), above 10 µM.
On to `CNC(=O)Cn1ccc2ccc(Nc3ncc(F)c(Nc4ccc(C(=O)NC)c(Cl)c4)n3)cc21` [Compound 665, N4-[3-Chloro-4-(N-methylamino)carbonylphenyl]-5-fluoro-N2-[1-(N-methylamino)carbonylmethyleneindol-6-yl]-2,4-pyrimidinediamine], for which the IC50 was below 10 µM in experiment [1] (setting [6]) and above 10 µM in experiment [2] (setting [7]).
As for `CC1(C)COc2ccc(Nc3nc(Nc4ccc(-c5ncco5)cc4)ncc3F)cc2N1` [Compound 238, N4-(3,4-Dihydro-3,3-dimethyl-2H,4H-benz[1,4]oxazin-6-yl)-5-fluoro-N2-[4-(oxazol-2-yl)phenyl]-2,4-pyrimidinediamine], the IC50 in experiment [1] (setting [8]) was below 10 µM; in experiment [1] (setting [9]) it was below 10 µM; in experiment [2] (setting [10]), above 10 µM.
For the compound `COc1cc(Nc2nc(Nc3cccc(N4CCN(C(C)=O)CC4)c3)ncc2F)cc(OC)c1` [Compound 428, N2-[3-(4-Acetylpiperazino)phenyl]-N4-(3,5-dimethoxyphenyl)-5-fluoro-2,4-pyrimidinediamine], the IC50 in experiment [1] (setting [15]) was below 10 µM; in experiment [2] (setting [16]), above 10 µM.
Regarding `COc1c(C)cc(Nc2ncc(F)c(Nc3ccc4c(c3)N(C)C(=O)C(C)(C)O4)n2)cc1C` [Compound 1033], the IC50 in experiment [1] (setting [11]), in experiment [1] (setting [12]) and in experiment [2] (setting [13]) was below 10 µM in each case.
In the case of `CN1C(=O)COc2cc(Nc3nc(Nc4ccc(-c5ncco5)cc4)ncc3F)ccc21` [Compound 244], the IC50 in experiment [1] (setting [3]) and in experiment [2] (setting [5]) was above 10 µM throughout.
On to `COC(=O)COc1ccc(Nc2nc(Nc3ccc(OC)c(Cl)c3)ncc2F)cc1Cl` [Compound 616, N4-[3-Chloro-4-(methoxycarbonyl)methyleneoxyphenyl]-N2-(3-chloro-4-methoxyphenyl)-5-fluoro-2,4-pyrimidinediamine], for which the IC50 in experiment [1] (setting [6]), in experiment [1] (setting [14]) and in experiment [2] (setting [7]) was below 10 µM each time.
`COc1ccc(Nc2nc(Nc3cccc(-c4cnco4)c3)ncc2F)cc1OC` [Compound 419, N4-(3,4-Dimethoxyphenyl)-5-fluoro-N2-[3-(oxazol-5-yl)phenyl]-2,4-pyrimidinediamine]: the IC50 in experiment [1] (setting [15]) was below 10 µM; in experiment [1] (Homo sapiens, Mast cell, low cell density CHMC, tryptase, 8 pt, read-out: LD Tryptase, CHMC, IgE, 8 pt) it was below 10 µM; in experiment [2] (setting [16]), above 10 µM.
Take `Fc1cnc(Nc2ccc(N3CCOCC3)cc2)nc1Nc1ccc2c(n1)NCCO2` [Compound 1128, N4-(3,4-Dihydro-2H,4H-5-pyrid[1,4]oxazin-6-yl)-5-fluoro-N2-(4-morpholinophenyl)-2,4-pyrimidinediamine]: the IC50 in experiment [1] (low cell density CHMC, tryptase, 8 pt, read-out: LD Tryptase, CHMC, IgE, 8 pt) is below 10 µM; in experiment [2] (low cell density CHMC, tryptase, 3 pt), above 10 µM.
